According to patent US12264163B2, “Compounds and methods for treating fibrotic pathologies” (Mayo Foundation for Medical Education and Research, priority 2019, dated 2025):
Structures can show the parent of a compound that is named as a salt.

Key:
CTGF, COL1A1, ACTA2, FN1 = experiment: Profibrotic / matrix remodeling gene expression by qPCR in fibroblasts; assay type: cell-based, human; conditions: IMR-90 lung fibroblasts; for profibrotic gene expression: 24 hours
Description: Genes which encode Connective tissue growth factor (CTGF), Collagen I (COL1A1), αSMA (ACTA2), and Fibronectin (FN1) are reduced by 24 hour treatment with DHX (10 μM), +/−SCH 39166 (3 μM). N=3 (****p<0.0001, ***p<0.001, *p<0.05 vs. 0.1% DMSO vehicle control)
IPF patient-derived fibroblasts cultured in media containing 0.1% FBS were stimulated for 24 hours with 2 ng/mL TGFβ and 10 μM DHX prior to RNA isolation. Genes which encode for ECM crosslinking: transglutaminase 2 (TGM2), lysyl oxidase and lysyl oxidase-like enzymes (LOX and LOXL1-4), ECM degradation: uPA (PLAU), tPa (PLAT), cathepsin K (CTSK), and matrix metalloprotease-14 (MMP14) and ECM protease inhibitors: metalloprotease inhibitor 3 (TIMP3), and plasminogen activator inhibitor 1 (SERPINE1) were measured. N=3. (****p<0.0001, ***p<0.001, **p<0.01, *p<0.05 vs. 0.1% DMSO vehicle control non-TGFβ treated), (++++p<0.0001, ++p<0.01, +p<0.05 vs. 0.10% DMSO vehicle control TGFβ treated).
For all other in vitro experiments, cells were treated as indicated prior to RNA isolation using RNeasy Plus Mini Kit (Qiagen) according to manufacturer's instructions. Isolated RNA (250 ng) was then used to synthesize cDNA using SuperScript VILO (Invitrogen). Quantitative PCR was performed using FastStart Essential DNA Green Master (Roche) and analyzed using a LightCycler 96 (Roche). Data are expressed as a fold change by ΔΔCt relative to GAPDH. For in vivo experiments, tissue was immediately frozen, and stored at −80° C. RNA isolation, cDNA synthesis, and qPCR analysis were performed as above.

YAP/TAZ [1] = experiment: YAP/TAZ nuclear localization in adult lung fibroblasts, dose response (Cytation 5); assay type: cell-based; conditions: Homo sapiens, Fibroblast, 2 h, adult lung fibroblasts sparsely plated, treated 2 hours; read-out: IC50, inhibition of YAP/TAZ nuclear localization
Description: Adult lung fibroblasts (N=2) sparsely plated into 96-well plates. Treated for 2 hours with compounds prior to fixing and immunostaining for YAP/TAZ.
(§1) Immunofluorescence Microscopy: Cells were plated into 96 well plates (Corning 3603) in their specific growth media and allowed to attach (8 hours). Media was then exchanged for the indicated conditions for each experiment. Cells were fixed in 3.7% formalin (Sigma-Aldrich), permeabilized in 0.25% Triton X-100 (Sigma-Aldrich) and then blocked with 1% BSA for 1 h. Cells or tissue sections were incubated overnight with mouse monoclonal antibody against αSMA (Sigma-Aldrich F3777), and/or a rabbit monoclonal antibody against YAP/TAZ (Cell Signaling D24E4) diluted 1:200 in PBS with 1% BSA. Cells were then washed and exposed to flourescence-conjugated secondary antibodies (Invitrogen) diluted 1:1000 and DAPI (Thermo Fisher Scientific). Images were taken with a Cytation5 (BioTek) microscope. For scoring αSMA positive cells (FIG. 12), an observer blinded to the treatment conditions counted αSMA-positive cells using a visual threshold for bright fibrous staining; a minimum of 200 cells was counted for each condition. YAP/TAZ localization was quantified (FIGS. 6-10, 24-26, and 29-30) using Gen5 (Biotek) software. Images were taken at 4× magnification of both DAPI and YAP/TAZ staining. […] Quantification of double positive (YAP/TAZ and αSMA) cells from lung tissue sections (FIG. 17-21) was performed similarly; however separate thresholds were established for both YAP/TAZ and αSMA. A minimum of 4000 cells was quantified for each mouse.

YAP/TAZ [2] = experiment: YAP/TAZ nuclear localization in IPF patient-derived lung fibroblasts treated with dopaminergic agonists; assay type: cell-based, human; conditions: for Nuclear localization (% of total cells): 10 μM, 2 hours
Description: IPF patient-derived lung fibroblasts cells treated 2 hours prior to fixation with diverse dopaminergic agonists (10 μM). N=4 different patient samples. % nuclear localization of YAP/TAZ was determined using automated imaging software. Scale bar represents 100 μm.
as §1, with “Media” for “Immunofluorescence Microscopy: Cells were plated into 96 well plates (Corning 3603) in their specific growth media and allowed to attach (8 hours). Media”, “Cells were fixed in 3.7% formalin (Sigma-Aldrich), permeabilized in 0.25% Triton X-100 (Sigma-Aldrich) and then blocked with 1% BSA for 1 h.” left out

[3] = test system: IPF patient derived fibroblasts; experiment: Traction force microscopy of IPF patient-derived fibroblasts; assay type: cell-based, human; conditions: IPF fibroblasts on 6.4 kPa matrices
Description: Traction Force Microscopy: Traction analysis was conducted as previously described. […] IPF patient derived fibroblasts were plated on the gels overnight and treated as indicated before traction force measurements. Images of gel surface-conjugated fluorescent beads were acquired for each cell before and after trypsinization using a Nikon ECLIPSE Ti microscope at ×10 magnification. Traction forces were estimated by measuring bead displacement fields and computing corresponding traction fields using TractionsForAll (freely distributed program that calculates 2-D tractions exerted by an adherent cell on its substrate).

αSMA = experiment: TGFβ-induced αSMA+ stress fiber formation in fibroblasts; assay type: cell-based, human; conditions: IPF-patient derived fibroblasts, TGFβ 48 hours, then dopamine 1 μM + TGFβ 24 hours
Description: as §1, with “Media” for “Immunofluorescence Microscopy: Cells were plated into 96 well plates (Corning 3603) in their specific growth media and allowed to attach (8 hours). Media”

cAMP = cAMP assay (cAMP-Glo) in fibroblasts; assay type: cell-based, human; conditions: IMR-90 lung fibroblasts
Description: FIG. 9 contains a bar graph showing cAMP measured in IPF patient-derived fibroblasts treated for 20 minutes with DHX (10 μM)+/−SCH 39166 (3 μM). N=3 (**p<0.01 vs. 0.1% DMSO vehicle control).
N=3, IMR-90 lung fibroblasts.
cAMPAssay: IPF patient derived fibroblasts were plated in EMEM containing 10% FBS overnight. […] 20 minutes prior to cell lysis media was removed and cells were treated with “induction buffer” containing nonselective phosphodiesterase inhibitors and the indicated concentration of compound(s). Luminescence was measured on a Flexstation 3 (Molecular Devices) plate reader.

YAP/TAZ [4] = experiment: YAP/TAZ nuclear localization in IMR-90 and other fibroblasts / mesenchymal cells (immunofluorescence); assay type: cell-based, human; conditions: IMR-90 lung fibroblasts
Description: Selective agonists of dopamine receptor D1 with varying efficacy inhibit YAP/TAZ nuclear localization; this effect can be overcome by treatment with a DRD1 receptor antagonist (SCH 39166, 3 μM), (Dihydrexidine, 10 μM). IMR-90 cells treated 2 hours prior to fixation. N=4 (****p<0.0001 vs. 0.10% DMSO vehicle control). Scale bar represents 100 μm.
In each case DHX treatment (10 μM) can reverse this effect on YAP/TAZ. IMR-90 cells plated densely onto plastic cell culture plates for 24 hours in media containing 0.1% FBS, treated for 2 hours prior to fixation. N=4 (****p<0.0001 vs. 0.1% DMSO vehicle control), (++++p<0.0001 vs. the respective stimulated agonist ET-1, LPA, or 5-HT). Scale bar represents 100 μm.
Mesenchymal cells derived from lung (IMR-90 and IPF-FBs) hepatic stellate cells (HSC), human adult cardiac fibroblasts, (HACF) and human dermal fibroblasts (HDF) were plated densely (Confluent) or sparsely (Control and all remaining conditions) onto plastic cell culture plates for 24 hours in media containing 0.10% FBS, treated for 2 hours with Rho kinase inhibitor Y27632, adenylate cyclase activator forskolin and DHX. N=4, Cells that were positive for nuclear YAP/TAZ were quantified by automated image analysis.
as §1

Row | SMILES | profibrotic gene expression (CTGF, COL1A1, ACTA2, FN1) | IC50 (YAP/TAZ [1]) | effect of D1 antagonist on DHX's inhibition of YAP/TAZ target genes (CTGF, COL1A1, ACTA2, FN1) | effect of D1 antagonist on DHX's elevation of cAMP (cAMP) | effect of D1 antagonist on DHX's inhibition of YAP/TAZ nuclear localization (YAP/TAZ [4]) | further results
1 | NCC1OC(C2CCCOC2)Cc2c1ccc(O)c2O (centres unmarked) [CTC-1] | inhibition of profibrotic gene expression | 285 nM | – | – | – | –
2 | CC(C)(CO)C1Cc2c(ccc(O)c2O)C(CN)O1 (centres unmarked) [CTC-2] | inhibition of profibrotic gene expression | 490 nM | – | – | – | –
3 | NCCc1ccc(O)c(O)c1 [Dopamine•HCl, Dopamine] | – | – | – | – | – | Nuclear localization (% of total cells) (YAP/TAZ [2]; IPF-1 patient fibroblasts): 39.85 % of total cells; Nuclear localization (% of total cells) (YAP/TAZ [2]; IPF-2 patient fibroblasts): 59.29 % of total cells; Nuclear localization (% of total cells) (YAP/TAZ [2]; IPF-3 patient fibroblasts): 49.67 % of total cells; Nuclear localization (% of total cells) (YAP/TAZ [2]; IPF-4 patient fibroblasts): 49.51 % of total cells; YAP/TAZ nuclear localization (YAP/TAZ [2]; low density IPF-patient derived fibroblasts on tissue culture plastic): inhibits YAP/TAZ nuclear localization; contractile forces (traction force microscopy) [3]: attenuates IPF fibroblast contractility; αSMA+ stress fiber formation (αSMA): reverses αSMA+ stress fiber formation
4 | CN1CCc2ccccc2Cc2[nH]c3ccccc3c2CC1 [LE-300] | – | – | block DHX's inhibition of YAP/TAZ target genes | block DHX's elevation of cAMP | block DHX's inhibition of YAP/TAZ nuclear localization | –
5 | CN1CCc2cc(Cl)c(O)cc2[C@H]2c3ccccc3CC[C@@H]21 [SCH-39166] | – | – | block DHX's inhibition of YAP/TAZ target genes | block DHX's elevation of cAMP | block DHX's inhibition of YAP/TAZ nuclear localization | –
